# From patent US20120052056A1, “COMPOSITION FOR IMPROVING BLOOD CIRCULATION CONTAINING FERMENTED TEA, AND PHARMACEUTICAL AND HEALTH-FOOD COMPOSITIONS COMPRISING THE SAME” (priority 2009, published 2012)
# System: rats fed high-cholesterol diet inducing hyperlipidemia
# Test: Reduction in the serum and liver lipid levels in animal model
# Type: in vivo
# Settings: 200 mg/kg oral once a day for 4 weeks with hyperlipidemia-inducing diet
# Protocol: Eight 8-week-old female rats weighing 250-300 g were housed in each polycarbonate cage under a 12 hr light/12 hr dark cycle at a constant temperature of 22±2° C. and a relative humidity of 55±15%. The animals were fed with a normal diet and a high-cholesterol diet and given drinking water ad libitum. The test animals were divided into four groups: a normal group, a control group, a positive control group, and a test group. The normal group was provided only with general feed, the control group was fed with a normal diet containing 1% cholesterol and 0.5% cholic acid to cause hyperlipidemia, and the positive control group was administered with fenofibric acid (200 mg/kg) that is used as an agent for treating hyperlipidemia, in which the fenofibric acid was suspended in 1% methyl cellulose (MC) and administered orally. The test group was administered orally with the post-fermented tea extract and the green tea extract every day together with a hyperlipidemia-inducing diet, in which the post-fermented tea extract and the green tea extract (200 mg/kg) were provided by oral administration once a day for 4 weeks. After the rats of each group were fasted for 12 hours, a blood sample was taken from the orbital vein and centrifuged at 10000 rcf for 10 minutes. The resulting serum was used to evaluate blood total cholesterol, LDL cholesterol and HDL-cholesterol levels. The rat's liver was collected and used to evaluate the liver cholesterol and triglyceride levels. The above analysis was carried out using an automatic blood analyzer and a Roche diagnostic kit, and the results of the analysis are shown in Table 4 (serum lipids) below and Table 5 (liver lipids).
structure (smiles),measurement,setting,value
"CC(C)(Oc1ccc(C(=O)c2ccc(Cl)cc2)cc1)C(=O)O [Positive control group, fenofibric acid]",Liver lipids: Total cholesterol,liver,15.43 ± 0.52 µg/mg
same,Liver lipids: Triglyceride,liver,185.39 ± 23.84 µg/mg
same,Serum lipids: HDL-cholesterol,serum,87.89 ± 6.84 mg/dL
same,Serum lipids: LDL-cholesterol,serum,75.34 ± 2.80 mg/dL
same,Serum lipids: Total cholesterol,serum,112.42 ± 13.33 mg/dL
